Test results reported in patent US12195452B2, “N-(4-(oxazol-5-yl)phenyl) chromane-3-carboxamide derivatives and related compounds as stimulators of the production of retinal precursor cells for the treatment of neuroretinal diseases” (ENDOGENA THERAPEUTICS, INC., priority 2018, dated 2025).

What follows are molecules tested on retinal precursor cells (assay: Sphere passaging and high-throughput drug screening: proliferation of retinal precursor cells from the ciliary epithelium, cell number after one week). Settings: control experiment (absence of a compound) = 100; cells grown for one week.
Type: cell-based, mammalian
Experimental: Kynurenic Acid (0.2 mg/mL), trypsin (1.33 mg/mL), and hyaluronidase (0.67 mg/mL) were weighed out and dissolved in high magnesium/low calcium artificial cerebral spinal fluid (aCSF) at 37° C. Fibroblast growth factor 2 (FGF2; 10 ng/mL) and heparin (2 μg/mL) were added to 100 mL of serum-free media (SFM). Ovomucoid trypsin inhibitor (1 mg/mL) was dissolved in warm SFM and sterile filtered ([…]).
A dissecting microscope, cold light source, and sterile surgical instruments were set up inside of a sterile biological safety cabinet (BSC). Mammalian eyes were enucleated and placed in a petri dish containing cold, sterile aCSF. Under the dissecting microscope, hair, connective tissue, and the dorsal and ventral oblique muscles were cleared from the scleral/corneal border with two sets of forceps. Next, curved or angled micro-dissecting scissors were used to cleave any remaining extraocular muscle tissue, the optic nerve, and cut the eyeball into symmetrical halves; beginning and finishing the cut from the hole left by the optic nerve. Using two sets of forceps to grasp the cornea, the two eye halves were peeled apart. The lens, optic nerve, and vitreous were separated from the eye shells and the eye shells were transferred into a new petri dish (also containing cold, sterile aCSF). To isolate the ciliary epithelium (CE), eye shells were oriented with the cornea on the right and retinal pigmented epithelium (RPE) on the left. A pair of straight forceps were used to pin down the eye shell on the RPE side while a scalpel blade was inserted between the CE and the iris, using pressure to slice the iris/cornea side off from the rest of the shell. Next, the scalpel was run along the border between the CE and the RPE to obtain the CE isolated as a thin strip of tissue. The CE strips were then transferred to a 35 mm dish containing 2 mL of dispase solution (Sigma; T1005) and incubated for 10 minutes at 37° C. Next, the strips were transferred from dispase into a 35 mm dish containing 2 mL of sterile filtered kynurenic acid, trypsin and hyaluronidase solution and incubated at 37° C. for 10 minutes. After incubation, the dish was returned to the dissecting scope, and the CE strips were pinned down with straight, non-serrated forceps, while non-serrated curved forceps were used to scrape the CE off from the underlying sclera. The bare scleral strips were then discarded, such that only the CE cells remained in the enzyme solution. Using a fire-polished, cotton-plugged glass pipette, the cells and enzyme solution were transferred to a 15 mL tube and triturated approximately 45 times to break apart the tissue. The 15 mL tube/cell suspension was centrifuged for 5 minutes at 1500 rpm. The supernatant was gently aspirated from the resulting pellet using a fire-polished, cotton-plugged glass pipette and 2 mL of trypsin inhibitor solution was added to the pellet. Using a small borehole, fire-polished, cotton-plugged glass pipette, the sample was triturated approximately 45 times until it was a single-cell suspension. The 15 mL tube/cell suspension was centrifuged for 5 minutes at 1500 rpm. The supernatant was gently aspirated from the resulting pellet and 1-2 mL of SFM with FGF2 and heparin (plating media) was added. The cells and media were mixed to ensure a uniform cell suspension and a 10 uL sample was taken and cell density was determined. The cells were then seeded and cultured at 10c/μL in culture-treated plates or flasks. After one week, roughly 1 in 500 cells proliferated to form free-floating, clonal spheres greater than 80 μm in diameter.
Human-derived spheres were passaged using the kynurenic acid, trypsin, hyaluronidase enzyme solution with the addition of collagenase I (0.5 mg/mL), collagenase II (0.5 mg/mL) and elastase (0.1 mg/mL). Mouse-derived spheres were passaged using hyaluronidase (0.67 mg/mL), collagenase I (0.5 mg/mL), and collagenase II (0.5 mg/mL) dissolved in Accustase solution (Sigma; SCR005). […]

Row | Molecule | Cell proliferation within one week [%]
1 | COc1ccc2c(c1)OC(C(=O)Nc1ccc(-c3cnco3)c(Cl)c1)CO2 (racemic) [Compound 8, N-(3-chloro-4-(oxazol-5-yl)phenyl)-7-methoxy-2,3-dihydrobenzo[b][1,4]dioxine-2-carboxamide] | 117
2 | O=C(Nc1ccc(-c2cnco2)c(Cl)c1)C1Cc2ccccc2C1 (racemic) [Compound 36, N-(3-chloro-4-(oxazol-5-yl)phenyl)-2,3-dihydro-1H-indene-2-carboxamide] | 124
3 | N-(2-(difluoromethoxy)-4-(oxazol-5-yl)phenyl)chroman-3-carboxamide [Compound 27] | 106
4 | COc1cc(NC(=O)C2COc3ccccc3C2)ccc1-c1ccncc1 (racemic) [Compound 17, N-(3-methoxy-4-(pyridin-4-yl)phenyl)chromane-3-carboxamide] | 114
5 | COc1ccc2c(c1)OC(C(=O)Nc1ccc(-c3ccncc3)c(OC)c1)CO2 (racemic) [Compound 18, 7-methoxy-N-(3-methoxy-4-(pyridin-4-yl)phenyl)-2,3-dihydrobenzo[b][1,4]dioxine-2-carboxamide] | 104
6 | O=C(Nc1ccc(-c2cnco2)c(Cl)c1)C1COc2ccccc2C1 (single isomer, unassigned; (-)) [Compound 21, (−)-N-(3-chloro-4-(1,3-oxazol-5-yl)phenyl)chromane-3-carboxamide] | 126
7 | O=C(Nc1ccc(-c2cnco2)c(Cl)c1)C1Cc2ccccc2O1 (racemic) [Compound 31, N-(3-chloro-4-(oxazol-5-yl)phenyl)-2,3-dihydrobenzofuran-2-carboxamide] | 137
8 | COc1cc(NC(=O)C2COc3ccccc3O2)ccc1-c1ccncc1 (racemic) [Compound 19, N-(3-methoxy-4-(pyridin-4-yl)phenyl)-2,3-dihydrobenzo[b][1,4]dioxine-2-carboxamide] | 110
9 | COc1ccc2c(c1)OC(C(=O)Nc1ccc(-c3cnco3)c(OC)c1)CO2 (racemic) [Compound 20, 7-methoxy-N-(3-methoxy-4-(oxazol-5-yl)phenyl)-2,3-dihydrobenzo[b][1,4]dioxine-2-carboxamide] | 113
10 | COc1ccc2c(c1)CC(C(=O)Nc1ccc(-c3cnco3)c(OC)c1)CO2 (racemic) [Compound 14, 6-methoxy-N-(3-methoxy-4-(oxazol-5-yl)phenyl)chromane-3-carboxamide] | 196
11 | COc1cc(NC(=O)C2CCOc3ccccc32)ccc1-c1cnco1 (racemic) [Compound 11, N-(3-methoxy-4-(oxazol-5-yl)phenyl) chromane-4-carboxamide] | 140
12 | COc1cc(NC(=O)C2COc3ccccc3O2)ccc1-c1cnco1 (racemic) [Compound 13, N-(3-methoxy-4-(oxazol-5-yl)phenyl)-2,3-dihydrobenzo[b][1,4]dioxine-2-carboxamide] | 137

Same assay, conditions: within one week, over control

Row | Molecule | increase of cell proliferation [%]
13 | COc1ccc2c(c1)CC(C(=O)Nc1ccc(-c3cnco3)c(OC)c1)CO2 (racemic) [Compound 14, 6-methoxy-N-(3-methoxy-4-(oxazol-5-yl)phenyl)chromane-3-carboxamide] | 96
14 | COc1cc(NC(=O)C2CCOc3ccccc32)ccc1-c1cnco1 (racemic) [Compound 11, N-(3-methoxy-4-(oxazol-5-yl)phenyl) chromane-4-carboxamide] | 40
